From the NIST ThermoML archive (doi:10.1021/acs.jced.6b00096)
Numbers after ± are expanded uncertainties.

How the values were obtained:
[1] = xn = mol fraction of the nth substance listed; settings: 100 kPa, Liquid; for viscosity: Falling or rolling sphere viscometry; for mass density: Vibrating tube method
[2] = 298.15 K; 100 kPa; Liquid; Falling or rolling sphere viscometry
[3] = 298.15 K; 100 kPa; Liquid; Vibrating tube method
[4] = 318.15 K; 100 kPa; Liquid; Falling or rolling sphere viscometry
[5] = 318.15 K; 100 kPa; Liquid; Vibrating tube method

## CCO [ethanol]
[2]
  viscosity: 1.084 ± 0.013 mPa·s
[3]
  mass density: 785.01 ± 1.6 kg/m3
[4]
  viscosity: 0.752 ± 0.009 mPa·s
[5]
  mass density: 767.54 ± 1.5 kg/m3

## CC(C)(C)O [2-methylpropan-2-ol] + Cc1ccccc1
[1]; 298.15 K, x2 = 0.0822
  viscosity: 2.579 ± 0.035 mPa·s
  mass density: 786.59 ± 1.6 kg/m3
[1]; 298.15 K, x2 = 0.1678
  viscosity: 1.625 ± 0.022 mPa·s
  mass density: 792.96 ± 1.6 kg/m3
[1]; 298.15 K, x2 = 0.2564
  viscosity: 1.184 ± 0.016 mPa·s
  mass density: 799.78 ± 1.6 kg/m3
[1]; 298.15 K, x2 = 0.3488
  viscosity: 0.991 ± 0.013 mPa·s
  mass density: 807.09 ± 1.6 kg/m3
[1]; 298.15 K, x2 = 0.4458
  viscosity: 0.868 ± 0.011 mPa·s
  mass density: 815 ± 1.6 kg/m3
[1]; 298.15 K, x2 = 0.5468
  viscosity: 0.744 ± 0.009 mPa·s
  mass density: 823.34 ± 1.6 kg/m3
[1]; 298.15 K, x2 = 0.6525
  viscosity: 0.624 ± 0.008 mPa·s
  mass density: 832.08 ± 1.7 kg/m3
[1]; 298.15 K, x2 = 0.7621
  viscosity: 0.562 ± 0.007 mPa·s
  mass density: 841.26 ± 1.7 kg/m3
[1]; 298.15 K, x2 = 0.8787
  viscosity: 0.561 ± 0.007 mPa·s
  mass density: 851.02 ± 1.7 kg/m3
[1]; 318.15 K, x2 = 0.0822
  viscosity: 1.171 ± 0.017 mPa·s
  mass density: 765.3 ± 1.5 kg/m3
[1]; 318.15 K, x2 = 0.1676
  viscosity: 0.899 ± 0.012 mPa·s
  mass density: 771.88 ± 1.6 kg/m3
[1]; 318.15 K, x2 = 0.2565
  viscosity: 0.744 ± 0.01 mPa·s
  mass density: 778.96 ± 1.6 kg/m3
[1]; 318.15 K, x2 = 0.3491
  viscosity: 0.649 ± 0.009 mPa·s
  mass density: 786.64 ± 1.6 kg/m3
[1]; 318.15 K, x2 = 0.4459
  viscosity: 0.582 ± 0.008 mPa·s
  mass density: 794.84 ± 1.6 kg/m3
[1]; 318.15 K, x2 = 0.5467
  viscosity: 0.528 ± 0.007 mPa·s
  mass density: 803.43 ± 1.6 kg/m3
[1]; 318.15 K, x2 = 0.6524
  viscosity: 0.486 ± 0.006 mPa·s
  mass density: 812.43 ± 1.6 kg/m3
[1]; 318.15 K, x2 = 0.7627
  viscosity: 0.461 ± 0.006 mPa·s
  mass density: 821.89 ± 1.6 kg/m3
[1]; 318.15 K, x2 = 0.8788
  viscosity: 0.454 ± 0.006 mPa·s
  mass density: 832.02 ± 1.7 kg/m3

## Cc1ccccc1 [toluene] + CCO
[1]; 298.15 K, x2 = 0.1005
  viscosity: 0.549 ± 0.007 mPa·s
[1]; 298.15 K, x2 = 0.2013
  viscosity: 0.558 ± 0.007 mPa·s
[1]; 298.15 K, x2 = 0.3002
  viscosity: 0.577 ± 0.007 mPa·s
[1]; 298.15 K, x2 = 0.4003
  viscosity: 0.606 ± 0.008 mPa·s
[1]; 298.15 K, x2 = 0.5001
  viscosity: 0.644 ± 0.008 mPa·s
[1]; 298.15 K, x2 = 0.6001
  viscosity: 0.693 ± 0.009 mPa·s
  mass density: 828.22 ± 1.7 kg/m3
[1]; 298.15 K, x2 = 0.7
  viscosity: 0.754 ± 0.009 mPa·s
  mass density: 819.95 ± 1.6 kg/m3
[1]; 298.15 K, x2 = 0.8
  viscosity: 0.831 ± 0.01 mPa·s
  mass density: 810.35 ± 1.6 kg/m3
[1]; 298.15 K, x2 = 0.9
  viscosity: 0.926 ± 0.011 mPa·s
  mass density: 798.87 ± 1.6 kg/m3
[1]; 298.15 K, x2 = 0.1003
  mass density: 857.16 ± 1.7 kg/m3
[1]; 298.15 K, x2 = 0.2002
  mass density: 852.38 ± 1.7 kg/m3
[1]; 298.15 K, x2 = 0.3
  mass density: 847.27 ± 1.7 kg/m3
[1]; 298.15 K, x2 = 0.4
  mass density: 841.65 ± 1.7 kg/m3
[1]; 298.15 K, x2 = 0.5002
  mass density: 835.35 ± 1.7 kg/m3
[1]; 318.15 K, x2 = 0.1004
  viscosity: 0.439 ± 0.005 mPa·s
  mass density: 838.1 ± 1.7 kg/m3
[1]; 318.15 K, x2 = 0.2004
  viscosity: 0.442 ± 0.006 mPa·s
[1]; 318.15 K, x2 = 0.2997
  viscosity: 0.449 ± 0.006 mPa·s
[1]; 318.15 K, x2 = 0.4007
  viscosity: 0.464 ± 0.006 mPa·s
[1]; 318.15 K, x2 = 0.5007
  viscosity: 0.483 ± 0.006 mPa·s
[1]; 318.15 K, x2 = 0.5998
  viscosity: 0.508 ± 0.006 mPa·s
[1]; 318.15 K, x2 = 0.6998
  viscosity: 0.542 ± 0.007 mPa·s
[1]; 318.15 K, x2 = 0.7999
  viscosity: 0.585 ± 0.007 mPa·s
[1]; 318.15 K, x2 = 0.8998
  viscosity: 0.641 ± 0.008 mPa·s
[1]; 318.15 K, x2 = 0.2002
  mass density: 833.2 ± 1.7 kg/m3
[1]; 318.15 K, x2 = 0.3003
  mass density: 828.01 ± 1.7 kg/m3
[1]; 318.15 K, x2 = 0.4003
  mass density: 822.39 ± 1.6 kg/m3
[1]; 318.15 K, x2 = 0.5
  mass density: 816.2 ± 1.6 kg/m3
[1]; 318.15 K, x2 = 0.6001
  mass density: 809.19 ± 1.6 kg/m3
[1]; 318.15 K, x2 = 0.7001
  mass density: 801.21 ± 1.6 kg/m3
[1]; 318.15 K, x2 = 0.7996
  mass density: 791.97 ± 1.6 kg/m3
[1]; 318.15 K, x2 = 0.9
  mass density: 780.91 ± 1.6 kg/m3

## CC(C)(C)O [2-methylpropan-2-ol]
298.15 K; 100 kPa; Metastable liquid; Falling or rolling sphere viscometry
  viscosity: 4.426 ± 0.06 mPa·s
298.15 K; 100 kPa; Metastable liquid; Vibrating tube method
  mass density: 780.99 ± 1.6 kg/m3
318.15 K; 100 kPa; Falling or rolling sphere viscometry; Liquid
  viscosity: 1.706 ± 0.026 mPa·s
318.15 K; 100 kPa; Vibrating tube method; Liquid
  mass density: 759.66 ± 1.5 kg/m3

## CC(C)(C)O [2-methylpropan-2-ol] + CCO
[1]; 298.15 K, x2 = 0.045
  viscosity: 4.314 ± 0.058 mPa·s
  mass density: 781.92 ± 1.6 kg/m3
[1]; 298.15 K, x2 = 0.082
  viscosity: 4.195 ± 0.056 mPa·s
  mass density: 782.51 ± 1.6 kg/m3
[1]; 298.15 K, x2 = 0.1518
  viscosity: 3.939 ± 0.052 mPa·s
  mass density: 783.11 ± 1.6 kg/m3
[1]; 298.15 K, x2 = 0.287
  viscosity: 3.395 ± 0.044 mPa·s
  mass density: 783.69 ± 1.6 kg/m3
[1]; 298.15 K, x2 = 0.4085
  viscosity: 2.86 ± 0.037 mPa·s
  mass density: 783.95 ± 1.6 kg/m3
[1]; 298.15 K, x2 = 0.5174
  viscosity: 2.384 ± 0.03 mPa·s
  mass density: 784.15 ± 1.6 kg/m3
[1]; 298.15 K, x2 = 0.6167
  viscosity: 2.026 ± 0.026 mPa·s
  mass density: 784.31 ± 1.6 kg/m3
[1]; 298.15 K, x2 = 0.707
  viscosity: 1.749 ± 0.022 mPa·s
  mass density: 784.42 ± 1.6 kg/m3
[1]; 298.15 K, x2 = 0.7896
  viscosity: 1.532 ± 0.019 mPa·s
  mass density: 784.55 ± 1.6 kg/m3
[1]; 298.15 K, x2 = 0.8654
  viscosity: 1.349 ± 0.017 mPa·s
  mass density: 784.72 ± 1.6 kg/m3
[1]; 298.15 K, x2 = 0.9355
  viscosity: 1.205 ± 0.015 mPa·s
  mass density: 784.85 ± 1.6 kg/m3
[1]; 318.15 K, x2 = 0.045
  viscosity: 1.724 ± 0.026 mPa·s
  mass density: 761.37 ± 1.5 kg/m3
[1]; 318.15 K, x2 = 0.082
  viscosity: 1.721 ± 0.026 mPa·s
  mass density: 762.26 ± 1.5 kg/m3
[1]; 318.15 K, x2 = 0.1516
  viscosity: 1.692 ± 0.025 mPa·s
  mass density: 763.35 ± 1.5 kg/m3
[1]; 318.15 K, x2 = 0.2872
  viscosity: 1.577 ± 0.022 mPa·s
  mass density: 764.69 ± 1.5 kg/m3
[1]; 318.15 K, x2 = 0.4083
  viscosity: 1.442 ± 0.02 mPa·s
  mass density: 765.58 ± 1.5 kg/m3
[1]; 318.15 K, x2 = 0.5174
  viscosity: 1.308 ± 0.017 mPa·s
  mass density: 766.2 ± 1.5 kg/m3
[1]; 318.15 K, x2 = 0.6168
  viscosity: 1.188 ± 0.015 mPa·s
  mass density: 766.59 ± 1.5 kg/m3
[1]; 318.15 K, x2 = 0.7072
  viscosity: 1.078 ± 0.014 mPa·s
  mass density: 766.91 ± 1.5 kg/m3
[1]; 318.15 K, x2 = 0.7896
  viscosity: 0.983 ± 0.012 mPa·s
  mass density: 767.15 ± 1.5 kg/m3
[1]; 318.15 K, x2 = 0.8656
  viscosity: 0.895 ± 0.011 mPa·s
  mass density: 767.35 ± 1.5 kg/m3
[1]; 318.15 K, x2 = 0.9355
  viscosity: 0.817 ± 0.01 mPa·s
  mass density: 767.46 ± 1.5 kg/m3

## Cc1ccccc1 [toluene]
[2]
  viscosity: 0.533 ± 0.007 mPa·s
[3]
  mass density: 862.01 ± 1.7 kg/m3
[4]
  viscosity: 0.447 ± 0.006 mPa·s
[5]
  mass density: 843.51 ± 1.7 kg/m3
